Results published in patent publication EP4653437A2 (Innovo Therapeutics Inc., priority 2023, dated 2024).

How the values were obtained:
[1] = target: T1, human 15-PGDH (Homo sapiens, UniProt P15428); assay: Evaluation of 15-PGDH inhibitory activity (fluorescence enzyme assay, NAD+/PGE2); type: biochemical; settings: human 15-PGDH enzyme, fluorescence Vmax
T1 construct: purchased R&D System 5660-DH
T1 sequence (P15428 1-266): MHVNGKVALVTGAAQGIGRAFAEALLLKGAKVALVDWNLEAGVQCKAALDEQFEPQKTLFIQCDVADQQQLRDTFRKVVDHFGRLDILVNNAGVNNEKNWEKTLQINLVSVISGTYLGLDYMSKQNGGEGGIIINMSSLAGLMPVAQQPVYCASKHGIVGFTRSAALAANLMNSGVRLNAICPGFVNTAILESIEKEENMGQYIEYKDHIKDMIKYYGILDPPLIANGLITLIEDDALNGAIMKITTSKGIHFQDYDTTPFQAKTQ
Experimental: 15-PGDH inhibition activity of Example compounds was measured as follows. 6.7 ng of human 15-PGDH (R&D System# 5660-DH) enzyme (10 µL) was added to a black 96 well plate, 60 µL of buffer (50 mM Tris-HCl, pH 7.5, 0.01% Tween 20) was added, and 10 µL of 200 µM β-Nicotinamide adenine dinucleotide sodium salt (Sigma, Cat# N0632-5G) was added. 10 µL of (10x) compound solution in DMSO was added and reacted for 10 minutes at room temperature.

[2] = tested on: A549 cells; assay: Measurement of PGE2-increasing activity in A549 cells (IL-1β stimulated, PGE2 quantified in supernatant); type: cell-based; settings: Homo sapiens, 24 h; concentration of 1 µM of each compound; IL-1β treated A549 cells; read-out: Increased PGE2 production in A549 cells
Method in brief: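 A549 cells grown 24 h in F12K with 10% FBS, then switched to serum-free medium with or without IL-1β and compound (0.1% DMSO final). After 24 h at 37 °C, 5% CO2, supernatant PGE2 quantified by immunoassay.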

Row | IC50 [1] [µM] | Structure (SMILES) | fold induction at 1 µM [2]
1 | ≤ 0.1 | O=C(Nc1cccc2c(C(=O)N3CCCCC3)cnn12)c1cncc(F)c1 [Example 241, 5-fluoro-N-[3-(piperidine-1-carbonyl)pyrazolo[1,5-a]pyridin-7-yl]pyridine-3-carboxamide] | > 1.5
2 | ≤ 0.1 | O=C(Cc1cccnc1)Nc1cncc(-c2cccc3c(C(=O)N4CCCCC4)cnn23)c1 [Example 327, N-(5-(3-(piperidine-1-carbonyl)pyrazolo[1,5-a]pyridin-7-yl)pyridin-3-yl)-2-(pyridin-3-yl)acetamide] | > 1.5
3 | ≤ 0.1 | O=C(c1ccc(-c2cccc3c(C(=O)N4CCCCC4)cnn23)cn1)N1CCNCC1 [Example 82, piperazin-1-yl(5-(3-(piperidine-1-carbonyl)pyrazolo[1,5-a]pyridin-7-yl)pyridin-2-yl)methanone] | < 1.5
4 | ≤ 0.1 | O=C(c1cnn2c(-c3cc(-c4noc(=O)[nH]4)cc([N+](=O)[O-])c3)cccc12)N1CCCCC1 [Example 329, 3-(3-nitro-5-(3-(piperidine-1-carbonyl)pyrazolo[1,5-a]pyridin-7-yl)phenyl)-1,2,4-oxadiazol-5(4H)-one] | > 1.5
5 | ≤ 0.1 | CN1CCN(c2ccc(-c3cccc4c(C(=O)N5CCCCC5)cnn34)cn2)CC1 [Example 111, (7-(6-(4-methylpiperazin-1-yl)pyridin-3-yl)pyrazolo[1,5-a]pyridin-3-yl)(piperidin-1-yl)methanone] | > 1.5
6 | ≤ 0.1 | O=C(NCC1CC1)c1cncc(-c2cccc3c(C(=O)N4CCCCC4)cnn23)c1 [Example 46, N-(cyclopropylmethyl)-5-(3-(piperidine-1-carbonyl)pyrazolo[1,5-a]pyridin-7-yl)nicotinamide] | > 1.5
7 | ≤ 0.1 | O=C(c1cnn2c(-c3ccc(Br)nc3)cccc12)N1CCCCC1 [Example 313, (7-(6-bromopyridin-3-yl)pyrazolo[1,5-a]pyridin-3-yl)(piperidin-1-yl)methanone] | > 1.5
8 | ≤ 0.1 | N#Cc1cc(F)cc(-c2cccc3c(C(=O)N4CCCCC4)cnn23)c1 [Example 291, 3-fluoro-5-(3-(piperidine-1-carbonyl)pyrazolo[1,5-a]pyridin-7-yl)benzonitrile] | > 1.5
9 | ≤ 0.1 | O=C1NCc2ncc(-c3cccc4c(C(=O)N5CCCCC5)cnn34)cc21 [Example 232, 3-(3-(piperidine-1-carbonyl)pyrazolo[1,5-a]pyridin-7-yl)-6,7-dihydro-5H-pyrrolo[3,4-b]pyridin-5-one] | > 1.5
10 | ≤ 0.1 | O=C(Nc1cccnc1)c1cccc(-c2cccc3c(C(=O)N4CCCCC4)cnn23)c1 [Example 37, 3-(3-(piperidine-1-carbonyl)pyrazolo[1,5-a]pyridin-7-yl)-N-(pyridin-3-yl)benzamide] | > 1.5
11 | ≤ 0.1 | Cn1cnc2cc(-c3cccc4c(C(=O)N5CCCCC5)cnn34)ccc2c1=O [Example 251, 3-methyl-7-(3-(piperidine-1-carbonyl)pyrazolo[1,5-a]pyridin-7-yl)quinazolin-4(3H)-one] | > 1.5
12 | ≤ 0.1 | O=C(Nc1ccc(-c2cccc3c(C(=O)N4CCCCC4)cnn23)cn1)c1cccnc1 [Example 287, N-(5-(3-(piperidine-1-carbonyl)pyrazolo[1,5-a]pyridin-7-yl)pyridin-2-yl)nicotinamide] | > 1.5
13 | ≤ 0.1 | O=C(Nc1ncc(-c2cccc3c(C(=O)N4CCCCC4)cnn23)cc1Cl)c1cccnc1 [Example 301, N-(3-chloro-5-(3-(piperidine-1-carbonyl)pyrazolo[1,5-a]pyridin-7-yl)pyridin-2-yl)nicotinamide] | > 1.5
14 | ≤ 0.1 | O=C(c1cnn2c(-c3ccc([N+](=O)[O-])nc3)cccc12)N1CCCCC1 [Example 16, (7-(6-nitropyridin-3-yl)pyrazolo[1,5-a]pyridin-3-yl)(piperidin-1-yl)methanone] | > 1.5
15 | ≤ 0.1 | O=C(Cc1cccnc1)Nc1c(F)cc(-c2cccc3c(C(=O)N4CCCCC4)cnn23)cc1F [Example 278, N-(2,6-difluoro-4-(3-(piperidine-1-carbonyl)pyrazolo[1,5-a]pyridin-7-yl)phenyl)-2-(pyridin-3-yl)acetamide] | > 1.5
16 | ≤ 0.1 | CCCCC(=O)c1cnn2c(-c3cnc4ccccc4c3)cccc12 [Example 151, 1-(7-(quinolin-3-yl)pyrazolo[1,5-a]pyridin-3-yl)pentan-1-one] | > 1.5

Row | IC50 [1] [µM] | Structure (SMILES) | fold induction at 1 µM [2]
17 | ≤ 0.1 | O=C(c1cnn2c(-c3ccc(N4CC5CCC4C5)nc3)cccc12)N1CCCCC1 (stereo not shown) [Example 215, (7-(6-(2-azabicyclo[2.2.1]heptan-2-yl)pyridin-3-yl)pyrazolo[1,5-a]pyridin-3-yl)(piperidin-1-yl)methanone] | > 1.5
18 | ≤ 0.1 | O=C(c1cnn2c(-c3ccc(NCCc4cccnc4)nc3)cccc12)N1CCCCC1 [Example 332, piperidin-1-yl(7-(6-((2-(pyridin-3-yl)ethyl)amino)pyridin-3-yl)pyrazolo[1,5-a]pyridin-3-yl)methanone] | > 1.5
19 | ≤ 0.1 | O=C(c1cnn2c(-c3ccc(F)nc3)cccc12)N1CCCC(C(F)(F)F)C1 (stereo not shown) [Example 338, (7-(6-fluoropyridin-3-yl)pyrazolo[1,5-a]pyridin-3-yl)(3-(trifluoromethyl)piperidin-1-yl)methanone] | > 1.5
20 | ≤ 0.1 | O=C1NCc2ccc(-c3cccc4c(C(=O)N5CCC(F)(F)CC5)cnn34)cc21 [Example 234, 6-(3-(4,4-difluoropiperidine-1-carbonyl)pyrazolo[1,5-a]pyridin-7-yl)isoindolin-1-one] | > 1.5
21 | 0.1 to 1 | CN1CCC(Nc2cccc3c(C(=O)N4CCCCC4)cnn23)CC1 [Example 150, (7-((1-methylpiperidin-4-yl)amino)pyrazolo[1,5-a]pyridin-3-yl)(piperidin-1-yl)methanone] | < 1.5
22 | ≤ 0.1 | Nc1noc2ccc(-c3cccc4c(C(=O)N5CCCCC5)cnn34)cc12 [Example 259, [7-(3-amino-1,2-benzoxazol-5-yl)pyrazolo[1,5-a]pyridin-3-yl]-(1-piperidyl)methanone] | > 1.5
23 | ≤ 0.1 | O=C(c1cnn2c(-c3ccc(Cl)nc3)cccc12)N1CCCCC1 [Example 314, (7-(6-chloropyridin-3-yl)pyrazolo[1,5-a]pyridin-3-yl)(piperidin-1-yl)methanone] | > 1.5
24 | ≤ 0.1 | CC(C)N1CCc2ccc(-c3cccc4c(C(=O)N5CCCCC5)cnn34)cc2C1=O [Example 133, 2-isopropyl-7-(3-(piperidine-1-carbonyl)pyrazolo[1,5-a]pyridin-7-yl)-3,4-dihydroisoquinolin-1(2H)-one] | > 1.5
25 | ≤ 0.1 | CN(C)CCNC(=O)c1cccc(-c2cccc3c(C(=O)N4CCCCC4)cnn23)c1 [Example 31, N-(2-(dimethylamino)ethyl)-3-(3-(piperidine-1-carbonyl)pyrazolo[1,5-a]pyridin-7-yl)benzamide] | < 1.5
26 | ≤ 0.1 | CCC1CCCN(C(=O)c2cnn3c(-c4ccc(N5CCOC5=O)nc4)cccc23)C1 (stereo not shown) [Example 354, 3-(5-(3-(3-ethylpiperidine-1-carbonyl)pyrazolo[1,5-a]pyridin-7-yl)pyridin-2-yl)oxazolidin-2-one] | > 1.5
27 | ≤ 0.1 | O=C(c1cnn2c(-c3ccc(-c4noc(=O)[nH]4)nc3)cccc12)N1CCCCC1 [Example 117, 3-(5-(3-(piperidine-1-carbonyl)pyrazolo[1,5-a]pyridin-7-yl)pyridin-2-yl)-1,2,4-oxadiazol-5(4H)-one] | > 1.5
28 | ≤ 0.1 | O=C(Nc1cccc2c(C(=O)N3CCCCC3)cnn12)c1ccc(Cl)cc1 [Example 239, 4-chloro-N-[3-(piperidine-1-carbonyl)pyrazolo[1,5-a]pyridin-7-yl]benzamide] | > 1.5
29 | ≤ 0.1 | O=C(Cc1cccnc1)Nc1ccc(-c2cccc3c(C(=O)N4CCCCC4)cnn23)cc1 [Example 274, N-(4-(3-(piperidine-1-carbonyl)pyrazolo[1,5-a]pyridin-7-yl)phenyl)-2-(pyridin-3-yl)acetamide] | > 1.5
30 | ≤ 0.1 | COCCC(=O)Nc1ccc(-c2cccc3c(C(=O)N4CCCCC4)cnn23)cn1 [Example 103, 3-methoxy-N-(5-(3-(piperidine-1-carbonyl)pyrazolo[1,5-a]pyridin-7-yl)pyridin-2-yl)propanamide] | < 1.5
31 | ≤ 0.1 | O=C(c1cnn2c(NCc3ccc(Cl)cc3)cccc12)N1CCCCC1 [Example 238, [7-[(4-chlorophenyl)methylamino]pyrazolo[1,5-a]pyridin-3-yl]-(1-piperidyl)methanone] | > 1.5

Row | Structure (SMILES) | IC50 [1] [µM] | fold induction at 1 µM [2]
32 | O=C(c1cnn2c(-c3ccc(N4C5CCC4CC5)nc3)cccc12)N1CCCCC1 [Example 217] | ≤ 0.1 | > 1.5
